Here are results for 79 molecules from PMC12040169 (PLOS Biology, 2025).

This series is described as follows: in vitro. Particulars: human, hela cells, % viability.

Structures are written as SMILES.

On to `O=C(CN1C(=O)N2CCCN=C2c2ccc(Cl)cc21)N1CCCC1` [CBK284387], for which the viability at 28.5 h, 10 µM came to 78.7%.
The same measure, in the same setting: the value for `Cn1c(=O)[nH]c(=O)c2c1nc(N1CCOCC1)n2CCCSc1nc2ccccc2s1` [CBK269368] was 92.7%; that for `Cc1cccnc1NC(=O)c1c(O)c2ccccc2n(C)c1=O` [CBK261431] was 96%.
As for `NS(=O)(=O)c1cccc(NC(=O)c2cccs2)c1` [CBK024419], the viability at 28.5 h, 10 µM came out at 94.2%.
On the same count and under the same terms, the value for `CC(C)(C)OCc1[nH]nc(O)c1Cc1c(Cl)cccc1Cl` [CBK089569] was 106%.
Turning to `N#Cc1ccc(C(=O)N2Cc3nc[nH]c3C[C@H]2c2nc(-c3ccncc3)no2)cc1` [CBK288963], the viability at 28.5 h, 10 µM came to 117%.
Consider `O=C(CC1SC(NC2CCCCC2)=NC1=O)Nc1cc(Cl)ccc1Cl` (stereo not shown) [CBK059501], for which the viability at 28.5 h, 10 µM was determined as 91%.
Consider `Cc1ccccc1-c1cc(=O)[nH]c(Nc2ccccc2)n1` [CBK288142], for which the viability at 28.5 h, 10 µM is 97%.
Turning to `O=C(Nc1ccc(C(=O)N2CCOCC2)cc1)c1cc(-c2cccnc2)nc2ccc(Cl)cc12` [CBK267725], the viability at 28.5 h, 10 µM came to 93%.
For the molecule `Cc1cc(-c2c(C)n(-c3ccccc3)[nH]c2=O)n2ncnc2n1` [CBK288441], the viability at 28.5 h, 10 µM worked out at 89.4%.
Turning to `COc1ccc(NC(=O)CC(C(=O)O)N2CCCCC2)cc1` (stereo not shown) [CBK267115], the viability at 28.5 h, 10 µM amounted to 101%.
Consider `O=C1NC(=O)C(CCc2ccncc2)(c2ccccc2)C(=O)N1` [CBK288431], for which, under “bulk resorufin, single well”, the viability at 28.5 h, 10 µM was 96.9%.
`O=C(O)C1=CC(c2c[nH]nc2-c2ccc(F)cc2)n2ncnc2N1` (stereo not shown) [CBK286906]: the viability at 28.5 h, 10 µM turned out to be 86.2%.
Take `Cc1nn(CC(=O)C(C)(C)C)c(=O)c2cc3sccc3n12` [CBK284111]: the viability at 28.5 h, 10 µM is 87.2%.
With `CCn1c(CN2CCN(Cc3ccc4c(c3)OCO4)CC2)n[nH]c1=S` [CBK013828], the viability at 28.5 h, 10 µM is 105%.
Consider `COc1ccc(/C=N\N(C)c2nc(-c3ccccc3)cc(-c3ccc(Br)cc3)n2)cc1OC` [CBK261799], for which the viability at 28.5 h, 10 µM is 104%.
The same measure, in the same setting: with `COc1ccccc1CC(=O)Nc1ncccc1OCCCC#N` [CBK304952] the figure was 91%; with `CCCc1nc(-c2ccc3c(c2)CCCN3S(C)(=O)=O)cs1` [CBK306253], 93%; with `CC(C(=O)NCCc1cn(C)c2ccc(Cl)cc12)N1CCOCC1` (stereo not shown) [CBK282263], 94.6%.
Take `COc1ccc(C(=O)N2CCN(Cc3cc(OC)ccc3OC)CC2)cc1` [CBK263032]: the viability at 28.5 h, 10 µM worked out at 88.8%.
Regarding `CC(=O)N1CCN(C(=O)C[C@@H]2C[C@@H](C(C)C)[C@H](CNC(=O)c3cccnc3)C=C2C)CC1` [CBK289046], the viability at 28.5 h, 10 µM worked out at 102%.
`COc1ccccc1CCC(=O)N1CCCc2c(cnn2C)C1` [CBK284847]: the viability at 28.5 h, 10 µM was 80%.
On the same count and under the same terms, with `COc1cc(CNC(=O)NC(=O)C2CCN(C(C)=O)CC2)cc(OC)c1OC` [CBK034833] the figure was 105%; with `COC(=O)c1c(NC(=S)NCc2ccccn2)sc2c1CCC2` [CBK267090], 95.9%.
In the case of `Cc1c(Cl)cccc1S(=O)(=O)Nc1ccc(C(=O)O)cc1` [CBK034050], the viability at 28.5 h, 10 µM is 86.4%.
Consider `COc1cccc(CN2CCC3(C2)c2[nH]c4c(C)cccc4c2CCN3C(C)=O)c1` (stereo not shown) [CBK039662], for which the viability at 28.5 h, 10 µM was 84.9%.
Same read-out and setting: the value for `CC(=O)c1ccc(-c2ccc(/C=C\c3[nH]c(=O)[nH]c(=O)c3[N+](=O)[O-])o2)cc1` [CBK267038] was 90.7%; that for `O=C(O)CC1CCC2(CC1)Cc1ccccc1C2` [CBK012397] was 89.8%.
On the same count and under the same terms, the value for `C(=C\c1ccccc1)/CN1CCC(Cc2ccccc2)CC1` [CBK126384] was 119%; that for `CCOC(=O)C1CCN(S(=O)(=O)c2cccc3cccnc23)CC1` [CBK051242] was 92.5%.
As to `Cc1ccc(OCC(=O)Nc2sc3c(c2C(N)=O)CCCCC3)c([N+](=O)[O-])c1` [CBK268148], the viability at 28.5 h, 10 µM stood at 101%.
Same read-out and setting: the value for `Cn1nc(-c2ccc(S(=O)(=O)Nc3ncc([N+](=O)[O-])s3)s2)cc1C(F)(F)F` [CBK067542] was 109%.
Regarding `CO[C@H]1CNC[C@@H]1NC(=O)c1cccc2c1NCCC2` [CBK307421], the viability at 28.5 h, 10 µM amounted to 115%.
For the molecule `CC1(C#N)CCCN(C(=O)NC2CCN(Cc3cccc(O)c3)CC2)C1` (stereo not shown) [CBK306787], the viability at 28.5 h, 10 µM amounted to 88.2%.
In the case of `COc1ccc(F)cc1S(=O)(=O)Nc1cccc(C)n1` [CBK268842], the viability at 28.5 h, 10 µM amounted to 84.9%.
Take `O=[N+]([O-])c1cc(CN2CCCCC2)c2cccnc2c1O` [CBK265121]: the viability at 28.5 h, 10 µM is 86.3%.
Regarding `Cc1ccc(-c2cc(C(=O)O)[nH]n2)cc1` [CBK265462], the viability at 28.5 h, 10 µM is 101%.
Regarding `CCC(=O)N1CCC(NCc2ccc(OCC(N)=O)cc2)C(C)C1` (stereo not shown) [CBK303989], the viability at 28.5 h, 10 µM was 77.6%.
For the molecule `Cc1cc(C)cc(OCc2nnc(SCC(=O)Nc3c(F)cc(F)cc3Br)n2C)c1` [CBK268604], the viability at 28.5 h, 10 µM came to 83.6%.
Turning to `Cn1c(CNC2CCCCC2)nc2ccccc21` [CBK058416], the viability at 28.5 h, 10 µM amounted to 111%.
For the molecule `CCC(=O)c1cccc2c1NC=C1C(=O)CC(C)(C)CC1=N2` [CBK265821], the viability at 28.5 h, 10 µM was determined as 108%.
Consider `Cc1ccc(CN2CCCC3(C/C=C/COc4ccccc4C(=O)NCCNC3=O)C2)cn1` (stereo not shown) [CBK292022], for which the viability at 28.5 h, 10 µM was 94%.
For `CCCCC(=O)N1CCC2(CC1)CC(=O)c1ccc(OCc3ccccc3)c(C)c1O2` [CBK156493], the viability at 28.5 h, 10 µM is 104%.
In the case of `CCNS(=O)(=O)c1ccc2c(c1)N(Cc1cccnc1C)CC2` [CBK306020], the viability at 28.5 h, 10 µM amounted to 92.1%.
With `CCOC(=O)C(C(C)=O)(N1CCOCC1)N1CCOCC1` [CBK261173], the viability at 28.5 h, 10 µM was found to be 90.2%.
Take `CS(=O)(=O)N(CC(=O)NCc1ccccn1)Cc1ccc(Cl)cc1` [CBK267982]: the viability at 28.5 h, 10 µM is 94.6%.
`CCn1c2ccccc2c2cc(/C=N/c3cc(S(=O)(=O)c4ccc(O)c(/N=C/c5ccc6c(c5)c5ccccc5n6CC)c4)ccc3O)ccc21` [CBK261229]: the viability at 28.5 h, 10 µM amounted to 76.5%.
Consider `c1cnc2[nH]c(C3CCNCC3)c(CN3CCCCCC3)c2c1` [CBK285057], for which the viability at 28.5 h, 10 µM stood at 102%.
`Cc1cccc2cc3c(nc12)OCC(=O)N(Cc1ccco1)C3` [CBK283816]: the viability at 28.5 h, 10 µM turned out to be 97.6%.
Still for that read-out and setting: with `Cc1c(C(=O)NC2(c3ccc(F)cc3)CCCC2)cnn1C` [CBK283978] the figure was 90.9%; with `COc1ccc2cc(CNc3ccc(F)c([N+](=O)[O-])c3)c(Cl)nc2c1` [CBK295133], 93.1%.
With `CCCC(=O)c1ccc(S(=O)(=O)N2CCN(Cc3ccc(C(C)=O)cc3)CC2)cc1` [CBK063159], the viability at 28.5 h, 10 µM was determined as 107%.
Turning to `O=C(CCn1c(C(F)F)cc2cccnc21)NCc1ccccn1` [CBK285068], the viability at 28.5 h, 10 µM is 100%.
Regarding `Cc1cccc(=O)n1CCCn1cc(C2CCOC2)nn1` (stereo not shown) [CBK307368], the viability at 28.5 h, 10 µM was 100%.
With `CCN(CC)CCN1CCN(c2cncc(-c3cccc(N)c3)n2)CC1` [CBK065751], the viability at 28.5 h, 10 µM turned out to be 97.2%.
On the same count and under the same terms, with `c1cnc(-c2ccoc2)c(NCCCN2CCOCC2)n1` [CBK036631] the figure was 95.3%; with `C[C@@H]1CN(C(=O)OCCc2cccs2)C[C@H](C)O1` [CBK200416], 95.5%.
As for `COc1cc(OC)nc(C(NC(=O)C2CCN(Cc3cccn3C)CC2)c2ccc(F)cc2)n1` (stereo not shown) [CBK148170], the viability at 28.5 h, 10 µM worked out at 104%.
For `Cc1ccc([N+](=O)[O-])cc1NC(=O)CSc1nnc(-c2ccco2)o1` [CBK268378], the viability at 28.5 h, 10 µM turned out to be 117%.
On to `NC(=O)CN1CC2(CCN(Cc3cccc(C(F)(F)F)c3)CC2)c2ccccc21` [CBK126776], for which the viability at 28.5 h, 10 µM worked out at 93.1%.
On the same count and under the same terms, with `O=C(O)COc1ccc(Br)cc1/C=C1\N=C(SCc2ccccc2)SC1=O` [CBK265725] the figure was 110%; with `CCOC(=O)Cn1nc(CC)n2c(cc3sccc32)c1=O` [CBK284073], 80.3%; with `Cc1ncc(S(=O)(=O)N2CCC(OCc3ccncc3)C2)s1` (stereo not shown) [CBK305483], 99.5%.
With `CCOc1ccc(CN(C)CC(=O)Nc2cc(C)no2)cc1` [CBK305605], the viability at 28.5 h, 10 µM amounted to 79.8%.
`Cc1cccc(Nc2nccc(-n3ccc(C)n3)n2)c1` [CBK288616]: the viability at 28.5 h, 10 µM is 79.7%.
For the molecule `CC(=O)Nc1cccc(C(=O)N2CCCC2c2ccncc2)c1` (stereo not shown) [CBK305080], the viability at 28.5 h, 10 µM was 96.5%.
On to `Cc1ccc(CNC(=O)C2(c3ccccc3)CCCC2)cc1F` [CBK161529], for which the viability at 28.5 h, 10 µM turned out to be 85.6%.
Regarding `COC(=O)CCc1ccc(S(=O)(=O)N2CCCN(Cc3cccc(Br)c3)CC2)cc1` [CBK062981], the viability at 28.5 h, 10 µM came to 102%.
For `CN(C)CCNC(=O)Cc1csc(-c2ccc(Cl)cc2)n1` [CBK107299], the viability at 28.5 h, 10 µM was found to be 96.2%.
Take `CCc1nn(CC(=O)NC2CC2)c(=O)c2cc3ccsc3n12` [CBK284128]: the viability at 28.5 h, 10 µM came to 88.6%.
On to `O=C(O)c1ccc(N2C(=O)C3C4C=CC(C4=C(c4ccccc4)c4ccccc4)C3C2=O)cc1` (stereo not shown) [CBK263030], for which the viability at 28.5 h, 10 µM was 104%.
As for `Nc1nonc1-n1cc(CN2CCCCC2)nn1` [CBK307044], the viability at 28.5 h, 10 µM was 97.1%.
For the molecule `O=C(Nc1cc2ccccc2c(Br)n1)C(F)(F)F` [CBK063301], the viability at 28.5 h, 10 µM turned out to be 82%.
In the case of `CS(=O)(=O)Nc1cccc(C(=O)O)c1` [CBK160404], the viability at 28.5 h, 10 µM amounted to 96.3%.
On to `COCCn1c(SCc2cn3c(C)cc(C)nc3n2)nc(C)c1C` [CBK306489], for which the viability at 28.5 h, 10 µM was 89.3%.
The same measure, in the same setting: the value for `CC1=CCC(C(=O)O)C(C(=O)Nc2cccnc2)C1` (stereo not shown) [CBK265895] was 92.9%; that for `CN1CCc2c(sc3nc(SCc4cccc5ccccc45)n(-c4ccccc4)c(=O)c23)C1` [CBK264556] was 124%; that for `CCC(=O)NC(=S)Nc1cccc(NC(=O)c2cccc(Cl)c2)c1` [CBK058759] was 93.6%.
Consider `Cc1cc(C[C@@H]2COC[C@H]2NCc2ccc(Cl)c(Cl)c2)on1` [CBK285400], for which the viability at 28.5 h, 10 µM was found to be 88%.
